This is an account of results in US20210212959A1, “GIP ELEVATION INHIBITOR” (KAO CORPORATION, priority 2018, published 2021).

The experiment concerns blood GIP level. In words: GIP elevation inhibitory activity of D-mannitol (single dietary test). It is filed as in vivo, mice (C57BL/6J). On the procedure:
Powdery feeds were prepared by using D-mannitol (manufactured by Kao Corp.) in accordance with the compositions listed in the following table and used as test samples. [table] Powdery feeds (Table 1) were weighed so as to have the same calories in each group and freely fed for 30 minutes to mice (C57BL/6J, CLEA Japan, Inc, male, 10-weeks old, n=10) fasted for 18 hours or more. During this free feeding, 200 mg of the feed was given to the high fat diet (HF) group; whereas, 216 mg of the feed to the D-mannitol group. Note that the calorie of D-mannitol was calculated as 0. Before feeding, and 30, 60 and 120 minutes after feeding a powdery-feed test sample, the mice were anesthetized with isoflurane, blood was sampled from the orbit (heparinized hematocrit micro blood collection tube, manufactured by VITREX) and the blood GIP level was measured. The amount of GIP was measured in accordance with ELISA method (Rat/Mouse GIP (total) ELISA (Millipore)). Each value was shown by mean±standard deviation. Statistically significant difference between the groups was obtained by applying Student's t-test to the HF group (*: p<0.05).

`OC[C@@H](O)[C@@H](O)[C@H](O)[C@H](O)CO` [D-mannitol]: under “conclusion of single dietary test in mice”, the “inhibitory activity against GIP elevation” value is on record as “has an inhibitory activity against GIP elevation”. Further, the “blood GIP concentration value at 30 minutes after intake of the sample” value (mice C57BL/6J male, fasted 18 hours or more, 216 mg high fat powdery feed containing D-mannitol, compared to HF group, Student's t-test p<0.05, FIG. 1A) is “significantly low”. For the setting “mice C57BL/6J male, fasted 18 hours or more, 216 mg high fat powdery feed containing D-mannitol, compared to control (HF) group, p<0.05, FIG. 1B”, the “area under the curve of GIP concentration up to 120 minutes after intake of the sample” value is on record as “significantly low”.
